Patent US20190152957A1, “PYRIDIN-3-YL ACETIC ACID DERIVATIVES AS INHIBITORS OF HUMAN IMMUNODEFICIENCY VIRUS REPLICATION” (ViiV HEALTHCARE UK (NO.5) LIMITED, priority 2016, published 2019)

System: recombinant NL-RLuc virus (HIV NL4-3 with Renilla Luciferase gene) in MT-2 cells
Assay: Inhibition of HIV replication (NL-RLuc virus, luciferase readout in MT-2 cells)
Format: cell-based
Settings: MT2, 120 h, read-out: Activity

Structure (SMILES)	EC50 [µM]
Cc1nc(C)c([C@H](OC(C)(C)C)C(=O)O)c(N2CCC(C)(C)CC2)c1-c1ccc2c(c1)CCN(Cc1[nH]nnc1[Si](C)(C)C)C2 [Compound 51, (S)-2-(tert-butoxy)-2-(4-(4,4-dimethylpiperidin-1-yl)-2,6-dimethyl-5-(2-((4-(trimethylsilyl)-1H-1,2,3-triazol-5-yl)methyl)-1,2,3,4-tetrahydroisoquinolin-6-yl)pyridin-3-yl)acetic acid]	< 0.1
Cc1nc(C)c([C@H](OC(C)(C)C)C(=O)O)c(N2CCC(C)(C)CC2)c1-c1ccc2c(c1)CCN(Cc1ccc(=O)[nH]c1)C2 [Compound 52, (S)-2-(tert-butoxy)-2-(4-(4,4-dimethylpiperidin-1-yl)-2,6-dimethyl-5-(2-((6-oxo-1,6-dihydropyridin-3-yl)methyl)-1,2,3,4-tetrahydroisoquinolin-6-yl)pyridin-3-yl)acetic acid]	0.1 to 1
Cc1n[nH]cc1CN1CCc2cc(-c3c(C)nc(C)c([C@H](OC(C)(C)C)C(=O)O)c3N3CCC(C)(C)CC3)ccc2C1 [Compound 53, (S)-2-(tert-butoxy)-2-(4-(4,4-dimethylpiperidin-1-yl)-2,6-dimethyl-5-(2-((3-methyl-1H-pyrazol-4-yl)methyl)-1,2,3,4-tetrahydroisoquinolin-6-yl)pyridin-3-yl)acetic acid]	< 0.1
Cc1nn(C)c(Cl)c1CN1CCc2cc(-c3c(C)nc(C)c([C@H](OC(C)(C)C)C(=O)O)c3N3CCC(C)(C)CC3)ccc2C1 [Compound 54, (S)-2-(tert-butoxy)-2-(5-(2-((5-chloro-1,3-dimethyl-1H-pyrazol-4-yl)methyl)-1,2,3,4-tetrahydroisoquinolin-6-yl)-4-(4,4-dimethylpiperidin-1-yl)-2,6-dimethylpyridin-3-yl)acetic acid]	< 0.1
CCN1CCc2cc(-c3c(C)nc(C)c([C@H](OC(C)(C)C)C(=O)O)c3N3CCC(C)(C)CC3)ccc2C1 [Compound 55, (S)-2-(tert-butoxy)-2-(4-(4,4-dimethylpiperidin-1-yl)-5-(2-ethyl-1,2,3,4-tetrahydroisoquinolin-6-yl)-2,6-dimethylpyridin-3-yl)acetic acid]	0.1 to 1

Same assay, conditions: MT2, 120 h, read-out: EC50 μM

Structure (SMILES)	EC50 [µM]
Cc1n[nH]cc1CN1CCc2cc(-c3c(C)nc(C)c([C@H](OC(C)(C)C)C(=O)O)c3N3CCC(C)(C)CC3)ccc2C1 [Compound 53, (S)-2-(tert-butoxy)-2-(4-(4,4-dimethylpiperidin-1-yl)-2,6-dimethyl-5-(2-((3-methyl-1H-pyrazol-4-yl)methyl)-1,2,3,4-tetrahydroisoquinolin-6-yl)pyridin-3-yl)acetic acid]	0.061
